# Test results: patent publication US20010006697A1, “Composition and method for producing low cholesterol eggs” (priority 1997, published 2001)
# “And” between values parts separate entries of the source, which are not always exact repeats. Equal entries are not always repeated. Where two headings read alike, the source gives them in different places. Marks after values point to notes of the source that are not given here.
# How the values were obtained:
# [1] = tested on: laying hens; test: Yolk cholesterol contents of eggs from statin-treated laying hens; format: in vivo, White Leghorn hens
# Procedure: Agric. […] Hens were treated as described in Example 1. […] The eggs were hard-cooked, and the yolks were separated, weighed, and crumbled. […] Agric. […] Egg homogenate filtrates were analyzed for cholesterol as described in Rudel, L. L. and Morris, M. D., J. Lipid Res. 14:364-366 (1973).
# [2] = tested on: laying hens; test: Egg production, egg weights and yolk weights of statin-treated laying hens; format: in vivo, White Leghorn hens
# Procedure: Hens were treated as described in Example 1. Egg yolk was weighed as outlined in Example 2.
# [3] = tested on: laying hens; conditions: 0.03% of diet; day 35, fasted 15 hours
# [4] = tested on: plasma VLDL particles; conditions: day 35
# [5] = tested on: plasma VLDL particles; conditions: day 35; remark: listed apart in the source
# [6] = tested on: laying hens; test: Liver cholesterol content; conditions: day 35
# [7] = 0.06% of diet, week 5 (maximal reduction for simvastatin, lovastatin)
# [8] = 0.03% of diet, Overall (weeks 1-5)
# [9] = 0.06% of diet, Overall (weeks 1-5)
structure (smiles),measurement,setting,value
CCC(C)(C)C(=O)O[C@H]1C[C@@H](C)C=C2C=C[C@H](C)[C@H](CC[C@@H]3C[C@@H](O)CC(=O)O3)[C@H]21 [Simvastatin],"Yolk cholesterol content, mg cholesterol/g yolk","[1]; 0.03% of diet, Week 0",10.8 ± 0.2^a mg cholesterol/g yolk
same,"Yolk cholesterol content, mg cholesterol/yolk","[1]; 0.03% of diet, Week 0",189.7 ± 6.1^a mg cholesterol/yolk
same,"Yolk cholesterol content, mg cholesterol/g yolk","[1]; 0.03% of diet, Week 1","11.2 ± 0.2^a,b mg cholesterol/g yolk"
same,"Yolk cholesterol content, mg cholesterol/yolk","[1]; 0.03% of diet, Week 1",192.9 ± 5.3^a mg cholesterol/yolk
same,"Yolk cholesterol content, mg cholesterol/g yolk","[1]; 0.03% of diet, Week 2","10.3 ± 0.2^c,d mg cholesterol/g yolk"
same,"Yolk cholesterol content, mg cholesterol/g yolk","[1]; 0.03% of diet, Week 3","10.0 ± 0.1^c,d mg cholesterol/g yolk"
same,"Yolk cholesterol content, mg cholesterol/yolk","[1]; 0.03% of diet, Week 3",166.2 ± 2.7^b mg cholesterol/yolk
same,"Yolk cholesterol content, mg cholesterol/g yolk","[1]; 0.03% of diet, Week 4","10.3 ± 0.2^b,c mg cholesterol/g yolk"
same,"Yolk cholesterol content, mg cholesterol/g yolk","[1]; 0.03% of diet, Week 5",10.1 ± 0.1^b mg cholesterol/g yolk
same,"Yolk cholesterol content, mg cholesterol/yolk","[1]; 0.03% of diet, Week 5","172.1 ± 2.9^b,c mg cholesterol/yolk"
same,"Yolk cholesterol content, mg cholesterol/g yolk","[1]; 0.06% of diet, Week 0",11.0 ± 0.3^a mg cholesterol/g yolk
same,"Yolk cholesterol content, mg cholesterol/yolk","[1]; 0.06% of diet, Week 0",191.1 ± 7.9^a mg cholesterol/yolk
same,"Yolk cholesterol content, mg cholesterol/g yolk","[1]; 0.06% of diet, Week 1",10.7 ± 0.2^b mg cholesterol/g yolk
same,"Yolk cholesterol content, mg cholesterol/yolk","[1]; 0.06% of diet, Week 1","188.7 ± 9.1^a,b mg cholesterol/yolk"
same,"Yolk cholesterol content, mg cholesterol/g yolk","[1]; 0.06% of diet, Week 2",10.0 ± 0.1^d mg cholesterol/g yolk
same,"Yolk cholesterol content, mg cholesterol/yolk","[1]; 0.06% of diet, Week 2",170.8 ± 3.0^b mg cholesterol/yolk
same,"Yolk cholesterol content, mg cholesterol/g yolk","[1]; 0.06% of diet, Week 3",9.8 ± 0.1^d mg cholesterol/g yolk
same,"Yolk cholesterol content, mg cholesterol/yolk","[1]; 0.06% of diet, Week 3",166.0 ± 4.6^b mg cholesterol/yolk
same,"Yolk cholesterol content, mg cholesterol/g yolk","[1]; 0.06% of diet, Week 4",9.9 ± 0.3^c mg cholesterol/g yolk
same,"Yolk cholesterol content, mg cholesterol/yolk","[1]; 0.06% of diet, Week 4",170.4 ± 7.0^b mg cholesterol/yolk
same,"Yolk cholesterol content, mg cholesterol/g yolk","[1]; 0.06% of diet, Week 5",9.3 mg cholesterol/g yolk and 9.3 ± 0.1^c mg cholesterol/g yolk
same,"Yolk cholesterol content, mg cholesterol/yolk","[1]; 0.06% of diet, Week 5","158.0 mg cholesterol/yolk and 158.0 ± 2.7^c,d mg cholesterol/yolk"
same,yolk cholesterol reduction from control on a per yolk (egg) basis,[1]; [7],22%
same,yolk cholesterol reduction from control per g of yolk (mg/g basis),[1]; [7],20%
same,"Egg weight, g",[2]; [8],"63.3 ± 1.4^a,b (141) g"
same,"Hen-day egg production, %",[2]; [8],"80.6 ± 2.3^a,b (141) %"
same,"Egg weight, g","[2]; 0.03% of diet, Week 1",63.8 ± 1.0^a g
same,"Hen-day egg production, %","[2]; 0.03% of diet, Week 1",80.0 ± 2.5^d %
same,"Egg weight, g","[2]; 0.03% of diet, Week 2","63.9 ± 0.9^a,b g"
same,"Hen-day egg production, %","[2]; 0.03% of diet, Week 2","85.7 ± 1.5^a,b %"
same,"Egg weight, g","[2]; 0.03% of diet, Week 3","62.5 ± 0.7^b,c g"
same,"Hen-day egg production, %","[2]; 0.03% of diet, Week 3",80.0 ± 1.2^b %
same,"Egg weight, g","[2]; 0.03% of diet, Week 4","62.8 ± 0.7^b,c g"
same,"Hen-day egg production, %","[2]; 0.03% of diet, Week 4","80.0 ± 1.2^b,c %"
same,"Egg weight, g","[2]; 0.03% of diet, Week 5","62.9 ± 0.7^a,b g"
same,"Hen-day egg production, %","[2]; 0.03% of diet, Week 5","80.0 ± 1.2^b,c %"
same,"Egg weight, g",[2]; [9],"62.0 ± 1.9^a,b (144) g"
same,"Hen-day egg production, %",[2]; [9],"82.3 ± 1.9^a,b (144) %"
same,"Egg weight, g","[2]; 0.06% of diet, Week 1",63.8 ± 1.0^a g
same,"Hen-day egg production, %","[2]; 0.06% of diet, Week 1","85.7 ± 1.5^b,c %"
same,"Egg weight, g","[2]; 0.06% of diet, Week 2","62.0 ± 1.0^b,c g"
same,"Hen-day egg production, %","[2]; 0.06% of diet, Week 2",82.9 ± 1.0^b %
same,"Egg weight, g","[2]; 0.06% of diet, Week 3",61.0 ± 1.0^c g
same,"Hen-day egg production, %","[2]; 0.06% of diet, Week 3",77.1 ± 1.2^b %
same,"Egg weight, g","[2]; 0.06% of diet, Week 4","62.2 ± 1.0^c,d g"
same,"Hen-day egg production, %","[2]; 0.06% of diet, Week 4",82.9 ± 1.0^b %
same,"Egg weight, g","[2]; 0.06% of diet, Week 5",60.5 ± 0.8^b g
same,"Hen-day egg production, %","[2]; 0.06% of diet, Week 5",88.6 ± 1.0^a %
same,change of plasma total cholesterol concentration vs control,[3],−36%
same,Plasma VLDL particle Diameter nm,[4]; 0.03% of diet,"35.2 ± 0.1^a,b nm"
same,Plasma VLDL particle Diameter nm,[4]; 0.06% of diet,"35.3 ± 0.1^a,b nm"
same,Plasma VLDL composition: EC (esterified cholesterol),[5]; 0.03% of diet,"0.06 ± 0.02^a,b %"
same,Plasma VLDL composition: PC (phosphatidylcholine),[5]; 0.03% of diet,12.15 ± 0.58^b %
same,Plasma VLDL composition: PE (phosphatidylethanolamine),[5]; 0.03% of diet,3.96 ± 0.17^a %
same,Plasma VLDL composition: Protein,[5]; 0.03% of diet,17.99 ± 1.48^a %
same,Plasma VLDL composition: SM (sphingomyelin),[5]; 0.03% of diet,1.77 ± 1.24^a %
same,Plasma VLDL composition: TG (triglyceride),[5]; 0.03% of diet,61.23 ± 2.98^a %
same,Plasma VLDL composition: UC (unesterified cholesterol),[5]; 0.03% of diet,2.84 ± 0.20^a %
same,Plasma VLDL composition: EC (esterified cholesterol),[5]; 0.06% of diet,"0.08 ± 0.04^a,b %"
same,Plasma VLDL composition: PC (phosphatidylcholine),[5]; 0.06% of diet,"13.85 ± 0.61^a,b %"
same,Plasma VLDL composition: PE (phosphatidylethanolamine),[5]; 0.06% of diet,3.65 ± 0.51^a %
same,Plasma VLDL composition: Protein,[5]; 0.06% of diet,17.06 ± 0.84^a %
same,Plasma VLDL composition: SM (sphingomyelin),[5]; 0.06% of diet,0.36 ± 0.23^a %
same,Plasma VLDL composition: TG (triglyceride),[5]; 0.06% of diet,62.03 ± 1.53^a %
same,Plasma VLDL composition: UC (unesterified cholesterol),[5]; 0.06% of diet,2.97 ± 0.13^a %
same,Liver Cholesterol mg/g liver,[6]; 0.03% of diet,3.1 ± 0.10^b mg/g liver
same,Liver Cholesterol mg/liver,[6]; 0.03% of diet,86.8 ± 2.9^a mg/liver
same,Liver Cholesterol mg/g liver,[6]; 0.06% of diet,"2.9 ± 0.04^b,c mg/g liver"
same,Liver Cholesterol mg/liver,[6]; 0.06% of diet,82.6 ± 1.9^a mg/liver
